Laboratory results from patent US10173971B2, “Picolinamides with fungicidal activity” (DOW AGROSCIENCES LLC, priority 2014, dated 2019).
Where two headings read alike, the source gives them in different places.

Tests used:
Puccinia triticina = assay: Fungicidal activity: wheat brown rust (PUCCRT), wheat seedlings, booth sprayer to run-off or track spray; type: in vivo; conditions: Low-Volume Cereal Activity at 121.5 g/H
Zymoseptoria tritici = assay: Fungicidal activity: leaf blotch of wheat (SEPTTR), wheat seedlings, booth sprayer to run-off or track spray; type: in vivo; conditions: Low-Volume Cereal Activity at 121.5 g/H
[1] = 24 h, 1 Day Protectant, read-out: PUCCRT 1DP
[2] = 72 h, 3 Day Curative, read-out: PUCCRT 3DC
[3] = 24 h, 1 Day Protectant, read-out: SEPTTR 1DP
[4] = 72 h, 3 Day Curative, read-out: SEPTTR 3DC

SMILES	pest or weed control at 121.5 g/ha (Puccinia triticina; [1])	pest or weed control at 121.5 g/ha (Puccinia triticina; [2])	pest or weed control at 121.5 g/ha (Zymoseptoria tritici; [3])	pest or weed control at 121.5 g/ha (Zymoseptoria tritici; [4])
CCOCC(=O)OCOc1c(OC)ccnc1C(=O)N[C@@H](C)C(=O)O[C@@H](C)[C@H](Cc1ccccc1)C(C)(C)OCc1ccccc1 [compound 236]	80 to 100%	0 to 80%	80 to 100%	0 to 80%
CCOCC(=O)OCOc1c(OC)ccnc1C(=O)N[C@@H](C)C(=O)O[C@@H](C)[C@@H](COC)Cc1ccc(F)cc1 [compound 237]	80 to 100%	80 to 100%	0 to 80%	0 to 80%
CCOCC(=O)OCOc1c(OC)ccnc1C(=O)N[C@@H](C)C(=O)O[C@@H](C)[C@H](Cc1ccc(F)cc1)C(C)(C)OC [compound 238]	80 to 100%	0 to 80%	0 to 80%	0 to 80%
COc1ccnc(C(=O)N[C@@H](C)C(=O)O[C@@H](C)[C@@H](COCc2ccccc2)Cc2ccc(F)cc2)c1OCOC(C)=O [compound 239]	80 to 100%	0 to 80%	80 to 100%	0 to 80%
COc1ccnc(C(=O)N[C@@H](C)C(=O)O[C@@H](C)[C@H](Cc2ccc(F)cc2)C(C)(C)OCc2ccccc2)c1OCOC(C)=O [compound 241]	80 to 100%	0 to 80%	80 to 100%	80 to 100%
COC[C@@H](Cc1ccc(F)cc1)[C@H](C)OC(=O)[C@H](C)NC(=O)c1nccc(OC)c1OCOC(C)=O [compound 243]	80 to 100%	80 to 100%	0 to 80%	0 to 80%
COc1ccnc(C(=O)N[C@@H](C)C(=O)O[C@@H](C)[C@H](Cc2ccc(F)cc2)C(C)(C)OC)c1OCOC(C)=O [compound 244]	80 to 100%	80 to 100%	0 to 80%	80 to 100%
COc1ccnc(C(=O)N[C@@H](C)C(=O)O[C@@H](C)[C@H](Cc2ccccc2)C(C)(C)OC)c1OCOC(C)=O [compound 245]	80 to 100%	80 to 100%	–	0 to 80%
COc1ccnc(C(=O)N[C@@H](C)C(=O)O[C@@H](C)[C@@H](COCc2ccc(F)cc2)Cc2ccc(F)cc2)c1OC(C)=O [compound 246]	0 to 80%	0 to 80%	80 to 100%	0 to 80%
COc1ccnc(C(=O)N[C@@H](C)C(=O)O[C@@H](C)[C@H](Cc2ccc(F)cc2)C(C)(C)OCc2ccc(F)cc2)c1OC(C)=O [compound 247]	0 to 80%	–	0 to 80%	0 to 80%
COc1ccnc(C(=O)N[C@@H](C)C(=O)O[C@@H](C)[C@@H](COCCC(C)C)Cc2ccccc2)c1OC(C)=O [compound 248]	80 to 100%	0 to 80%	–	0 to 80%
COc1ccnc(C(=O)N[C@@H](C)C(=O)O[C@@H](C)[C@@H](COCc2ccc(F)cc2)Cc2ccc(F)cc2)c1OCOC(C)=O [compound 249]	80 to 100%	0 to 80%	80 to 100%	0 to 80%
COc1ccnc(C(=O)N[C@@H](C)C(=O)O[C@@H](C)[C@H](Cc2ccc(F)cc2)C(C)(C)OCc2ccc(F)cc2)c1OCOC(C)=O [compound 250]	0 to 80%	0 to 80%	0 to 80%	–
COc1ccnc(C(=O)N[C@@H](C)C(=O)O[C@@H](C)[C@@H](COCCC(C)C)Cc2ccc(F)cc2)c1OCOC(C)=O [compound 251]	80 to 100%	0 to 80%	0 to 80%	80 to 100%
COc1ccnc(C(=O)N[C@@H](C)C(=O)O[C@@H](C)[C@@H](COCCC(C)C)Cc2ccccc2)c1OCOC(C)=O [compound 252]	80 to 100%	80 to 100%	80 to 100%	80 to 100%
CCOCC(=O)OCOc1c(OC)ccnc1C(=O)N[C@@H](C)C(=O)O[C@@H](C)[C@@H](COCc1ccc(F)cc1)Cc1ccc(F)cc1 [compound 253]	80 to 100%	0 to 80%	80 to 100%	0 to 80%
COc1ccnc(C(=O)N[C@@H](C)C(=O)O[C@@H](C)[C@H](Cc2ccccc2)C(C)(C)Oc2ccc(Cl)cc2Cl)c1OCOC(C)=O [compound 254]	80 to 100%	0 to 80%	80 to 100%	80 to 100%
C=C(C)[C@@H](Cc1ccccc1)[C@H](C)OC(=O)[C@H](C)NC(=O)c1nccc(OC)c1OCOC(C)=O [compound 255]	80 to 100%	80 to 100%	0 to 80%	80 to 100%
